Laboratory results: ChEMBL document CHEMBL3085639, “Novel camphane-based anti-tuberculosis agents with nanomolar activity” (2013)
Values after ≈ are worked out from the molar mass of the structure shown. Where a name gives a salt, the structure may show the parent alone.

Legend:
[1] = test system: Mycobacterium tuberculosis; test: Antimycobacterial activity against Mycobacterium tuberculosis H37Rv assessed as growth inhibition after 45 days by Canetti proportional method; type: functional; conditions: for MIC: Mycobacterium tuberculosis, H37Rv
[2] = test system: Mycobacterium tuberculosis; test: Antimycobacterial activity against Mycobacterium tuberculosis; type: functional

| Compound | -logMIC [1] | MIC [1] [µM] | MIC [2] [µM] |
| --- | --- | --- | --- |
| CC1(C)[C@@H]2CC[C@@]1(C)[C@H](O)[C@@H]2NC(=O)/C=C/c1ccccc1 | 6.481 | 0.33 (≈ 0.0988 µg/mL) |  |
| CC1(C)[C@@H]2CC[C@@]1(C)[C@H](O)[C@@H]2NC(=O)c1ccco1 | 6.42 | 0.38 (≈ 0.1 µg/mL) |  |
| CC(=O)Oc1ccccc1C(=O)N[C@@H]1[C@H]2CC[C@@](C)([C@@H]1O)C2(C)C | 6.523 | 0.3 (≈ 0.0994 µg/mL) |  |
| CC1(C)[C@@H]2CC[C@@]1(C)[C@H](O)[C@@H]2NC(=O)c1cccnc1 | 6.444 | 0.36 (≈ 0.0988 µg/mL) |  |
| CC1(C)[C@@H]2CC[C@@]1(C)[C@H](O)[C@@H]2NP(=O)(c1ccccc1)c1ccccc1 | 4.868 | 13.6 (≈ 5.01 µg/mL) |  |
| CCNC(=O)N[C@@H]1[C@H]2CC[C@@](C)([C@@H]1O)C2(C)C | 6.387 | 0.41 (≈ 0.0985 µg/mL) |  |
| CC1(C)[C@@H]2CC[C@@]1(C)[C@H](O)[C@@H]2NC(=O)[C@@H](O)c1ccccc1 | 4.783 | 16.5 (≈ 5.01 µg/mL) |  |
| CC1(C)[C@@H]2CC[C@@]1(C)[C@H](O)[C@@H]2NC(=O)[C@@H](O)Cc1ccccc1 | 5.201 | 6.3 (≈ 2 µg/mL) |  |
| CC(C)[C@H](O)C(=O)N[C@@H]1[C@H]2CC[C@@](C)([C@@H]1O)C2(C)C | 6.131 | 0.74 (≈ 0.199 µg/mL) |  |
| CC[C@H](C)[C@H](O)C(=O)N[C@@H]1[C@H]2CC[C@@](C)([C@@H]1O)C2(C)C | 5.151 | 7.06 (≈ 2 µg/mL) |  |
| CSCC[C@H](O)C(=O)N[C@@H]1[C@H]2CC[C@@](C)([C@@H]1O)C2(C)C | 6.18 | 0.66 (≈ 0.199 µg/mL) |  |
| CC1(C)[C@@H]2CC[C@@]1(C)[C@H](O)[C@@H]2NC(=O)CCc1ccccc1 | 6.481 | 0.33 (≈ 0.0995 µg/mL) |  |
| CC[C@@H](CO)NCCN[C@@H](CC)CO [ETHAMBUTOL HYDROCHLORIDE] |  | 7.22 |  |
| CC[C@@H](CO)NCCN[C@@H](CC)CO [ETHAMBUTOL] |  |  | 10 (≈ 2.04 µg/mL) |
